{"source": "patent US10947271B2", "about": "“Antibacterial agents” (THE UNIVERSITY OF QUEENSLAND, priority 2014, dated 2021)", "key": {"[1]": {"experiment": "Stability of compounds in human plasma", "conditions": "50% human plasma/PBS pH 7.4, 37° C.", "protocol": "Briefly test compounds (20 μM) were prepared from a 1 mM stock solution. The human plasma sample (200 μl) was diluted with 160 μl phosphate-buffer saline (PBS, pH 7.4) to a concentration of 50% v/v before use. Solutions were then vortexed and placed on a 37° C. shaker and shaken gently for 10 minutes. 40 μl of the test compounds were then added to the plasma sample and vortexed. For the reaction time t=0 hour, 50 μl of sample was immediately transferred into an eppendorf tube and quenched with 150 μl cold acetonitrile. The remaining plasma solution was incubated and shaken at 37° C. Other samples were collected at time points of 0, 1, 3, 6 and 24 hours whereby 50 μl aliquots were removed and quenched with 150 μl cold acetonitrile. All samples were placed in a 4° C. fridge for 10 minutes then centrifuged at 3000 rpm for 15 minutes. The supernatant (100 μl) was transferred to a glass vial insert for LCMS analysis. The percentage of test compounds remaining at the individual time points relative to sample at time point 0 hour were reported.\nPlasma: Human Plasma (Pooled Normal Human Plasma Heparin Anticoagulant 50 mL (IPLA-2 N-04 lot IR09-1001, originally from Innovative Research and imported by BioCore).\nAll compounds in 100% water (40 μL in 400 μL assay volume equivalent […])\nCompounds: 40 μL of the vancomycin derivative solution was added to 160 μL of PBS (pH 7.4) respectively in an Eppendorf tube. 600 μL of cold acetonitrile was added, the tube vortexed and transferred to a glass vial for LC-MS analysis.\nEucatropine: 200 μL of plasma and 190 μL of buffer were vortexed, shaken at 37° C. for 10 minutes. 10 μL of eucatropine solution was then added and the tube vortexed. A 50 μL aliquot was immediately transferred to an Eppendorf tube, 150 μL of cold acetonitrile added and the tube transferred to a 4° C. fridge for 10 minutes. The remaining plasma solution was then transferred to the incubator and shaken at 37° C. The tube was retrieved from the fridge, centrifuged at 3000 rpm for 15 min and 100 μL of supernatant transferred to a glass vial insert for LC-MS analysis. 50 μL aliquots were processed as above at 1, […], 3, 6 and 24 hours and 5 μL was injected into triple quad MS system for analysis. Vancomycin derivatives: 200 μL of plasma and 160 μL of buffer were vortexed and shaken at 37° C. for 10 minutes. 40 μL of compound was then added and the sample was processed as above."}, "[2]": {"tested_on": "MRSA (Strain ATCC 43300)", "experiment": "Murine thigh infection model (MRSA)", "type": "in vivo, Staphylococcus aureus", "conditions": "neutropenic CD1 mice"}, "[3]": {"tested_on": "Staphylococcus aureus MRSA ATCC 43300", "experiment": "MIC assay, S. aureus MRSA ATCC 43300", "type": "cell-based", "conditions": "24 h incubation, visual reading", "how_it_was_run": "(§1)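 MHB broth microdilution, twofold series, compounds 8–0.003 μg/ml; mid-log inoculum 5×10e5 CFU/mL; 37° C, 24 h; MIC read visually as lowest concentration without growth.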"}, "[4]": {"tested_on": "Streptococcus pneumoniae MDR ATCC 700677", "experiment": "MIC assay, S. pneumoniae MDR ATCC 700677", "type": "cell-based", "conditions": "24 h incubation, visual reading", "how_it_was_run": "as §1"}, "[5]": {"tested_on": "Enterococcus faecium MDR Van A ATCC 51559", "experiment": "MIC assay, E. faecium MDR Van A ATCC 51559", "type": "cell-based", "conditions": "24 h incubation, visual reading", "how_it_was_run": "as §1"}, "[6]": {"conditions": "single subcutaneous dose 25 mg/kg"}, "[7]": {"conditions": "single subcutaneous dose 10 mg/kg"}}, "data": [{"smiles": "CN[C@H](CC(C)C)C(=O)N[C@H]1C(=O)N[C@@H](CC(N)=O)C(=O)N[C@H]2C(=O)N[C@H]3C(=O)NC(C(=O)N[C@H](C(=O)O)c4cc(O)cc(O)c4-c4cc3ccc4O)[C@H](O)c3ccc(c(Cl)c3)Oc3cc2cc(c3OC2OC(CO)C(O)C(O)C2OC2CC(C)(N)C(O)C(C)O2)Oc2ccc(cc2Cl)[C@H]1O", "note": "(stereo partly shown) [MCC_000095, vancomycin, reference compound]", "values": [{"measurement": "% compound remaining after incubation in 50% human plasma", "setting": "[1]; 0 h (reference time point)", "result": 100, "unit": "%"}, {"measurement": "% compound remaining after incubation in 50% human plasma", "setting": "[1]; 1 h", "result": 176, "unit": "%"}, {"measurement": "% compound remaining after incubation in 50% human plasma", "setting": "[1]; 3 h", "result": 145, "unit": "%"}, {"measurement": "% compound remaining after incubation in 50% human plasma", "setting": "[1]; 6 h", "result": 149, "unit": "%"}, {"measurement": "% compound remaining after incubation in 50% human plasma", "setting": "[1]; 24 h", "result": 65, "unit": "%"}, {"measurement": "Average Reduction log Δcfu MRSA/thigh after 26 h", "setting": "[2]; [6]", "result": "x (x = 0-2)"}, {"measurement": "Average Reduction log Δcfu MRSA/thigh after 26 h", "setting": "[2]; single subcutaneous dose 200 mg/kg", "result": "xxx (xxx = 4-6)"}]}, {"smiles": "CCCCCCCCCCC(=O)N[C@@H](CCCCN)C(=O)N[C@@H](CCCCNC(=O)[C@H]1NC(=O)[C@H]2NC(=O)[C@H](NC(=O)[C@@H]3NC(=O)[C@H](CC(N)=O)NC(=O)[C@H](NC(=O)[C@@H](CC(C)C)NC)[C@H](O)c4ccc(c(Cl)c4)Oc4cc3cc(c4O[C@@H]3O[C@H](CO)[C@@H](O)[C@H](O)[C@H]3O[C@H]3C[C@](C)(N)[C@H](O)[C@H](C)O3)Oc3ccc(cc3Cl)[C@H]2O)c2ccc(O)c(c2)-c2c(O)cc(O)cc21)C(=O)O", "note": "[MCC_000080, nC10CO-K-K(Vanc)-OH]", "values": [{"measurement": "Minimum Inhibitory Concentration (MIC) Staph. aureus ATCC43300", "setting": "[3]", "result": "xxx (xxx = 0.1-<1)"}, {"measurement": "Minimum Inhibitory Concentration (MIC) S. pneumoniae ATCC 700677", "setting": "[4]", "result": "xxx (xxx = 0.1-<1)"}, {"measurement": "Minimum Inhibitory Concentration (MIC) E. faecium ATCC51559", "setting": "[5]", "result": "x (x = >4)"}, {"measurement": "% compound remaining after incubation in 50% human plasma", "setting": "[1]; 0 h (reference time point)", "result": 100, "unit": "%"}, {"measurement": "% compound remaining after incubation in 50% human plasma", "setting": "[1]; 1 h", "result": 101, "unit": "%"}, {"measurement": "% compound remaining after incubation in 50% human plasma", "setting": "[1]; 3 h", "result": 101, "unit": "%"}, {"measurement": "% compound remaining after incubation in 50% human plasma", "setting": "[1]; 6 h", "result": 100, "unit": "%"}, {"measurement": "% compound remaining after incubation in 50% human plasma", "setting": "[1]; 24 h", "result": 89, "unit": "%"}, {"measurement": "Average Reduction log Δcfu MRSA/thigh after 26 h", "setting": "[2]; [7]", "result": "xxx (xxx = 4-6)"}, {"measurement": "Average Reduction log Δcfu MRSA/thigh after 26 h", "setting": "[2]; [6]", "result": "xxxx (xxxx = >6)"}]}, {"smiles": "CNC(CC(C)C)C(=O)NC1C(=O)NC(CC(N)=O)C(=O)NC2C(=O)NC3C(=O)NC(C(=O)NC(C(=O)NCCCCC(NC(=O)C(CCCCN)NC(=O)C(CCCCN)NC(=O)c4ccc(Oc5ccccc5)cc4)C(=O)O)c4cc(O)cc(O)c4-c4cc3ccc4O)C(O)c3ccc(c(Cl)c3)Oc3cc2cc(c3OC2OC(CO)C(O)C(O)C2OC2CC(C)(N)C(O)C(C)O2)Oc2ccc(cc2Cl)C1O", "note": "(stereo not shown) [MCC_000214, (4-PhO-PhCO)-KK-K(Vanc)-OH]", "values": [{"measurement": "Minimum Inhibitory Concentration (MIC) Staph. aureus ATCC43300", "setting": "[3]", "result": "xxx (xxx = 0.1-<1)"}, {"measurement": "Minimum Inhibitory Concentration (MIC) S. pneumoniae ATCC 700677", "setting": "[4]", "result": "xxx (xxx = 0.1-<1)"}, {"measurement": "Minimum Inhibitory Concentration (MIC) E. faecium ATCC51559", "setting": "[5]", "result": "x (x = >4)"}, {"measurement": "% compound remaining after incubation in 50% human plasma", "setting": "[1]; 0 h (reference time point)", "result": 100, "unit": "%"}, {"measurement": "% compound remaining after incubation in 50% human plasma", "setting": "[1]; 1 h", "result": 101, "unit": "%"}, {"measurement": "% compound remaining after incubation in 50% human plasma", "setting": "[1]; 6 h", "result": 107, "unit": "%"}, {"measurement": "% compound remaining after incubation in 50% human plasma", "setting": "[1]; 24 h", "result": 111, "unit": "%"}, {"measurement": "Average Reduction log Δcfu MRSA/thigh after 26 h", "setting": "[2]; single subcutaneous dose 50 mg/kg", "result": "xxx (xxx = 4-6)"}]}, {"smiles": "CCCCCCCCCCC(=O)NC(CCCCN)C(=O)NC(CCCCN)C(=O)NC(CCCCNC(=O)C1NC(=O)C2NC(=O)C(NC(=O)C3NC(=O)C(CC(N)=O)NC(=O)C(NC(=O)C(CC(C)C)NC)C(O)c4ccc(c(Cl)c4)Oc4cc3cc(c4OC3OC(CO)C(O)C(O)C3OC3CC(C)(N)C(O)C(C)O3)Oc3ccc(cc3Cl)C2O)c2ccc(O)c(c2)-c2c(O)cc(O)cc21)C(N)=O", "note": "(stereo not shown) [MCC_000455]", "values": [{"measurement": "Minimum Inhibitory Concentration (MIC) Staph. aureus ATCC43300", "setting": "[3]", "result": "xxxxx (xxxxx = <0.01)"}, {"measurement": "Minimum Inhibitory Concentration (MIC) S. pneumoniae ATCC 700677", "setting": "[4]", "result": "xxxxx (xxxxx = <0.01)"}, {"measurement": "Minimum Inhibitory Concentration (MIC) E. faecium ATCC51559", "setting": "[5]", "result": "xxx (xxx = 0.1-<1)"}, {"measurement": "Average Reduction log Δcfu MRSA/thigh after 26 h", "setting": "[2]; [6]", "result": "xxx (xxx = 4-6)"}]}, {"smiles": "CCCCCCCC(=O)N[C@@H](CCCCN)C(=O)NCCCNC(=O)[C@H]1NC(=O)[C@H]2NC(=O)[C@H](NC(=O)[C@@H]3NC(=O)[C@H](CC(N)=O)NC(=O)[C@H](NC(=O)[C@@H](CC(C)C)NC)[C@H](O)c4ccc(c(Cl)c4)Oc4cc3cc(c4O[C@@H]3O[C@H](CO)[C@@H](O)[C@H](O)[C@H]3O[C@H]3C[C@](C)(N)[C@H](O)[C@H](C)O3)Oc3ccc(cc3Cl)[C@H]2O)c2ccc(O)c(c2)-c2c(O)cc(O)cc21", "note": "[MCC_005202]", "values": [{"measurement": "Minimum Inhibitory Concentration (MIC) Staph. aureus ATCC43300", "setting": "[3]", "result": "xxx (xxx = 0.1-<1)"}, {"measurement": "Minimum Inhibitory Concentration (MIC) S. pneumoniae ATCC 700677", "setting": "[4]", "result": "xxx (xxx = 0.1-<1)"}, {"measurement": "Minimum Inhibitory Concentration (MIC) E. faecium ATCC51559", "setting": "[5]", "result": "x (x = >4)"}, {"measurement": "Average Reduction log Δcfu MRSA/thigh after 26 h", "setting": "[2]; [7]", "result": "xx (xx = 2-4)"}]}, {"smiles": "CCCCCCCCC(=O)N[C@@H](CCCCN)C(=O)N[C@@H](CCCCNC(=O)[C@H]1NC(=O)[C@H]2NC(=O)[C@H](NC(=O)[C@@H]3NC(=O)[C@H](CC(N)=O)NC(=O)[C@H](NC(=O)[C@@H](CC(C)C)NC)[C@H](O)c4ccc(c(Cl)c4)Oc4cc3cc(c4O[C@@H]3O[C@H](CO)[C@@H](O)[C@H](O)[C@H]3O[C@H]3C[C@](C)(N)[C@H](O)[C@H](C)O3)Oc3ccc(cc3Cl)[C@H]2O)c2ccc(O)c(c2)-c2c(O)cc(O)cc21)C(=O)O", "note": "[MCC_005223]", "values": [{"measurement": "Minimum Inhibitory Concentration (MIC) Staph. aureus ATCC43300", "setting": "[3]", "result": "xxx (xxx = 0.1-<1)"}, {"measurement": "Minimum Inhibitory Concentration (MIC) S. pneumoniae ATCC 700677", "setting": "[4]", "result": "xx (xx = 1-4)"}, {"measurement": "Minimum Inhibitory Concentration (MIC) E. faecium ATCC51559", "setting": "[5]", "result": "x (x = >4)"}, {"measurement": "Average Reduction log Δcfu MRSA/thigh after 26 h", "setting": "[2]; [7]", "result": "x (x = 0-2)"}]}]}
